IC50 data for 29 compounds are collected here from patent publication US9346812B2, “Substituted pyrrolopyrimidine compounds, compositions thereof, and methods of treatment therewith” (Signal Pharmaceutical LLC, priority 2013, dated 2016).

Structures are written as SMILES.

The test system of the assay is CAL51 cell proliferation. The assay can be described thus: Cell Titer Glo Proliferation Assay (CAL51). Conditions: Homo sapiens, CAL-51; CAL51 cell proliferation, 72 h, Cell Titer Glo luminescence; read-out: Act. Level. It is filed as cell-based, human. The gist of the method: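 CAL51 triple-negative breast cancer cells in DMEM or RPMI with 10% FBS were treated after overnight culture with serially diluted compound at 0.2% final DMSO. After 72 h, viability was read as CellTiter-Glo luminescence.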
A general note: In ATP-based viability assays light output follows the ATP content of the culture.

Consider `CNC(=O)c1ccc(Nc2nc(OC3CCOCC3)c3c(-c4ccc(-c5nc(C)c[nH]5)cc4)c[nH]c3n2)c(OC)c1` [Example 207, 3-methoxy-N-methyl-4-(5-(4-(4-methyl-1H-imidazol-2-yl)phenyl)-4-(tetrahydro-2H-pyran-4-yloxy)-7H-pyrrolo[2,3-d]pyrimidin-2-ylamino)benzamide], for which the IC50 was below 100 nM.
On to `CNC(=O)c1ccc(Nc2nc(OC3CCOCC3)c3c(-c4ccc5nc(C)oc5c4)c[nH]c3n2)c(OC)n1` [Example 183, 6-methoxy-N-methyl-5-(5-(2-methylbenzo[d]oxazol-6-yl)-4-(tetrahydro-2H-pyran-4-yloxy)-7H-pyrrolo[2,3-d]pyrimidin-2-yalmino)picolinamide], for which the IC50 lay within 100 to 400 nM.
As to `Cc1nc2ccc(-c3c[nH]c4nc(Nc5cnn(C)c5C)nc(OC5CCCC5)c34)cc2o1` [Example 296, 4-(cyclopentyloxy)-N-(1,5-dimethyl-1H-pyrazol-4-yl)-5-(2-methylbenzo[d]oxazol-6-yl)-7H-pyrrolo[2,3-d]pyrimidin-2-amine], the IC50 was below 100 nM.
As to `CNC(=O)c1ccc(Nc2nc(OCCOC)c3c(-c4ccc5nc(C)oc5c4)c[nH]c3n2)c(OC)c1` [Example 139, 3-methoxy-4-(4-(2-methoxyethoxy)-5-(2-methylbenzo[d]oxazol-6-yl)-7H-pyrrolo[2,3-d]pyrimidin-2-ylamino)-N-methylbenzamide], the IC50 was below 100 nM.
Regarding `CNC(=O)c1ccc(Nc2nc(OC3CCCC3)c3c(-c4ccc5nonc5c4)c[nH]c3n2)c(OC)c1` [Example 260, 4-(5-(benzo[c][1,2,5]oxadiazol-5-yl)-4-(cyclopentyloxy)-7H-pyrrolo[2,3-d]pyrimidin-2-ylamino)-3-methoxy-N-methylbenzamide], the IC50 lay within 1000 to 10000 nM.
Under `CNC(=O)c1ccc(OC)c(Nc2nc(OC3CCOCC3)c3c(-c4ccc5nc(C)oc5c4)c[nH]c3n2)c1` [Example 181, 4-methoxy-N-methyl-3-(5-(2-methylbenzo[d]oxazol-6-yl)-4-(tetrahydro-2H-pyran-4-yloxy)-7H-pyrrolo[2,3-d]pyrimidin-2-ylamino)benzamide] stands 100 to 400 nM; under `CNC(=O)c1ccc(-c2c[nH]c3nc(Nc4ccnn4C)nc(OC4CCOCC4)c23)cc1` [Example 317, N-methyl-4-(2-(1-methyl-1H-pyrazol-5-ylamino)-4-(tetrahydro-2H-pyran-4-yloxy)-7H-pyrrolo [2,3-d]pyrimidin-5-yl)benzamide], 400 to 1000 nM; under `COc1cc(C(=O)N2CCC2)ccc1Nc1nc(OC2CCCC2)c2c(-c3ccc4nc(C)oc4c3)c[nH]c2n1` [Example 241, azetidin-1-yl(4-(4-(cyclopentyloxy)-5-(2-methylbenzo[d]oxazol-6-yl)-7H-pyrrolo[2,3-d]pyrimidin-2-ylamino)-3-methoxyphenyl) methanone], below 100 nM.
Next, `CNC(=O)c1ccc(Nc2nc(OC3CCCC3)c3c(-c4ccc(S(C)(=O)=O)cc4)c[nH]c3n2)c(OC)c1` [Example 61, 4-(4-(cyclopentyloxy)-5-(4-(methyl-sulfonyl)phenyl)-7H-pyrrolo[2,3-d]pyrimidin-2-ylamino)-3-methoxy-N-methylbenzamide]: below 100 nM; `CNC(=O)c1ccc(Nc2nc(OC3CCCC3)c3c(-c4cccc(CO)c4)c[nH]c3n2)c(OC)c1` [Example 26, 4-(4-(cyclopentyloxy)-5-(3-(hydroxymethyl)phenyl)-7H-pyrrolo[2,3-d]pyrimidin-2-ylamino)-3-methoxy-N-methylbenzamide]: below 100 nM; `CNC(=O)c1ccc(Nc2nc(OC3CCOCC3)c3c(-c4ccncn4)c[nH]c3n2)c(OC)c1` [Example 270, 3-methoxy-N-methyl-4-(5-(pyrimidin-4-yl)-4-(tetrahydro-2H-pyran-4-yloxy)-7H-pyrrolo[2,3-d]pyrimidin-2-ylamino)benzamide]: 100 to 400 nM.
Next, `CNC(=O)c1ccc(Nc2nc(OC3CCOCC3)c3c(-c4ccc(-c5nc(C)c(C)[nH]5)cc4)c[nH]c3n2)c(OC)c1` [Example 197, 4-(5-(4-(4,5-dimethyl-1H-imidazol-2-yl)phenyl)-4-(tetrahydro-2H-pyran-4-yloxy)-7H-pyrrolo[2,3-d]pyrimidin-2-ylamino)-3-methoxy-N-methylbenzamide]: 100 to 400 nM; `CNC(=O)c1ccc(Nc2nc(OC3CCCC3)c3c(-c4ccc(N(C)C)cc4)c[nH]c3n2)c(OC)c1` [Example 75, 4-(4-(cyclopentyloxy)-5-(4-(di-methylamino)phenyl)-7H-pyrrolo [2,3-d]pyrimidin-2-ylamino)-3-methoxy-N-methylbenzamide]: below 100 nM.
On to `COc1cc(C(=O)N2CCC(O)CC2)ccc1Nc1nc(OC2CCCC2)c2c(-c3ccc4nc(C)oc4c3)c[nH]c2n1` [Example 231, (4-(4-(cyclopentyloxy)-5-(2-methylbenzo[d]oxazol-6-yl)-7H-pyrrolo[2,3-d]pyrimidin-2-ylamino)-3-methoxyphenyl)(4-hydroxy-piperidin-1-yl)methanone], for which the IC50 was below 100 nM.
Next, `COc1cc(C#N)ccc1Nc1nc(OC2CCCC2)c2c(-c3ccc4nc(C)oc4c3)c[nH]c2n1` [Example 277, 4-(4-(cyclopentyloxy)-5-(2-methylbenzo[d]oxazol-6-yl)-7H-pyrrolo[2,3-d]pyrimidin-2-ylamino)-3-methoxybenzonitrile]: 100 to 400 nM; `COc1nc(Nc2ccc3[nH]ncc3c2)nc2[nH]cc(-c3ccc4nc(C)oc4c3)c12` [Example 87, N-(1H-indazol-5-yl)-4-methoxy-5-(2-methylbenzo[d]oxazol-6-yl)-7H-pyrrolo[2,3-d]pyrimidin-2-amine]: 100 to 400 nM; `CNC(=O)c1ccc(Nc2nc(OC(C)C)c3c(-c4ccnc(N)c4)c[nH]c3n2)c(OC)c1` [Example 194, 4-(5-(2-aminopyridin-4-yl)-4-isopropoxy-7H-pyrrolo[2,3-d]pyrimidin-2-ylamino)-3-methoxy-N-methylbenzamide]: below 100 nM.
Under `COc1cc(C(N)=O)ccc1Nc1nc(OC2CCCC2)c2c(-c3ccc(O)cc3)c[nH]c2n1` [Example 44, 4-(4-(cyclopentyloxy)-5-(4-hydroxyphenyl)-7H-pyrrolo[2,3-d]pyrimidin-2-ylamino)-3-methoxybenzamide] stands below 100 nM; under `COc1cc(C(=O)N2CC2(C)C)ccc1Nc1nc(OC2CCCC2)c2c(-c3ccc4nc(C)oc4c3)c[nH]c2n1` [Example 312, (4-(4-(cyclopentyloxy)-5-(2-methylbenzo[d]oxazol-6-yl)-7H-pyrrolo[2,3-d]pyrimidin-2-ylamino)-3-methoxyphenyl)(2,2-dimethylaziridin-1-yl)methanone], 400 to 1000 nM.
As for `CNC(=O)c1cccc(-c2c[nH]c3nc(Nc4ccc(C(=O)NC)cc4C)nc(OC4CCOCC4)c23)c1` [Example 144, N,3-dimethyl-4-(5-(3-(methyl-carbamoyl)phenyl)-4-(tetrahydro-2H-pyran-4-yloxy)-7H-pyrrolo[2,3-d]pyrimidin-2-ylamino)benzamide], the IC50 lay within 1000 to 10000 nM.
For the compound `CNC(=O)c1cccc(-c2c[nH]c3nc(Nc4ccc(C(=O)NC)cc4C)nc(OC)c23)c1` [Example 149, 4-(4-methoxy-5-(3-(methylcarbamoyl)phenyl)-7H-pyrrolo[2,3-d]pyrimidin-2-ylamino)-N,3-dimethylbenzamide], the IC50 was in the range of 1000 to 10000 nM.
As to `CNC(=O)c1ccc(Nc2nc(OC3CCOCC3)c3c(-c4cccc([C@H](C)O)c4)c[nH]c3n2)c(OC)c1` [Example 175, (S)-4-(5-(3-(1-hydroxyethyl)phenyl)-4-(tetrahydro-2H-pyran-4-yloxy)-7H-pyrrolo[2,3-d]pyrimidin-2-ylamino)-3-methoxy-N-methylbenzamide], the IC50 is 100 to 400 nM.
With `CNC(=O)c1ccc(Nc2nc(OC3CCCC3)c3c(-c4ccc5nc[nH]c5c4)c[nH]c3n2)c(OC)c1` [Example 30, 4-(5-(1H-benzo[d]imidazol-6-yl)-4-(cyclopentyloxy)-7H-pyrrolo[2,3-d]pyrimidin-2-ylamino)-3-methoxy-N-methylbenzamide], the IC50 is below 100 nM.
Next, `CNC(=O)c1ccc(Nc2nc(OC3CCCC3)c3c(-c4ccc(OC)cc4)c[nH]c3n2)c(OC)c1` [Example 76, 4-(4-(cyclopentyloxy)-5-(4-methoxyphenyl)-7H-pyrrolo[2,3-d]pyrimidin-2-ylamino)-3-methoxy-N-methylbenzamide]: below 100 nM; `COc1cc(C(=O)NCC2COCCO2)ccc1Nc1nc(OC2CCCC2)c2c(-c3ccc4nc(C)oc4c3)c[nH]c2n1` (centres unmarked) [Example 281, N-((1,4-dioxan-2-yl)methyl)-4-(4-(cyclopentyloxy)-5-(2-methylbenzo[d]oxazol-6-yl)-7H-pyrrolo[2,3-d]pyrimidin-2-ylamino)-3-methoxybenzamide]: 100 to 400 nM.
`CC[C@H](C)Oc1nc(Nc2ccc(C(=O)NCCO)cc2OC)nc2[nH]cc(-c3cnn(C)c3)c12` [Example 286, (S)-4-(4-sec-butoxy-5-(1-methyl-1H-pyrazol-4-yl)-7H-pyrrolo [2,3-d]pyrimidin-2-ylamino)-N-(2-hydroxyethyl)-3-methoxybenzamide]: the IC50 was in the range of 100 to 400 nM.
Next, `CNC(=O)c1ccc(Nc2nc(OC(C)C)c3c(-c4ccnc(OC)c4)c[nH]c3n2)c(OC)c1` [Example 185, 4-(4-isopropoxy-5-(2-methoxypyridin-4-yl)-7H-pyrrolo [2,3-d]pyrimidin-2-ylamino)-3-methoxy-N-methylbenzamide]: below 100 nM.
Under `Cc1nc2ccc(-c3c[nH]c4nc(Nc5cn(C)nc5C)nc(OC5CCCC5)c34)cc2o1` [Example 307, 4-(cyclopentyloxy)-N-(1,3-dimethyl-1H-pyrazol-4-yl)-5-(2-methylbenzo[d]oxazol-6-yl)-7H-pyrrolo[2,3-d]pyrimidin-2-amine] stands below 100 nM; under `CNC(=O)c1ccc(Nc2nc(OC3CCCC3)c3c(-c4ccc(OC)c(OC)c4)c[nH]c3n2)c(OC)c1` [Example 64, 4-(4-(cyclopentyloxy)-5-(3,4-dimethoxyphenyl)-7H-pyrrolo[2,3-d]pyrimidin-2-ylamino)-3-methoxy-N-methylbenzamide], 100 to 400 nM.
